Measurements taken from US20260167614A1, “IDENTIFICATION OF SMALL MOLECULES THAT RECRUIT AND ACTIVATE RNASE L” (UNIVERSITY OF FLORIDA RESEARCH FOUNDATION, INCORPORATED, priority 2022, published 2026).

How the values were obtained:
MDA-MB-231 cells = assay: Boyden chamber invasion assay, MDA-MB-231; type: cell-based; details: 5 μM
Protocol: (§1) The effect of the RiboTAC on a miR-21-associated invasive phenotype was next assessed. Treatment with 5 μM of 7 reduced the invasiveness of MDA-MB-231 cells, by ˜30% (p<0.05) (FIG. 4E-F). […] While forced expression of a mutant pre-miR-21 in which the Dovitinib-binding site is mutated also produced an invasive phenotype, the cells were insensitive to treatment with 7 (FIG. 12).
Boyden Chamber Invasion Assay. Hanging cell culture inserts (for 24-well plates, 8.0 μm) were pre-coated with 0.3 mg/mL Matrigel (Corning, 356234). MDA-MB-231 cells (75,000 per insert) were then seeded into the hanging inserts in serum free growth medium, with or without compound (0.1% final DMSO concentration). The inserts were then placed into 24-well plates containing complete. After 16-24 h, the medium was removed, and the hanging inserts were washed with 1×DPBS. Cells were fixed for 20 min at room temperature with 4% (w/v) paraformaldehyde in 1×DPBS. The inserts were washed twice with 1×DPBS and then stained with 0.1% (w/v) crystal violet in 20% methanol (v/v) for 20 min. The inserts were then washed twice with Nanopure water and once with 1×DPBS. Cells on the surface of the Matrigel (noninvasive) were removed with cotton swabs and invading cells were imaged under a Leica DMI3000 B […] fluorescent microscope (the number of invasive cells in 4 fields of view per sample).

miR-21 = assay: Global miRNA profiling in MDA-MB-231 cells; type: cell-based; details: 377 miRNAs
Protocol: Two CRISPR-modified MDA-MB-231 cell lines with either a scrambled control guide RNA (“Control sgRNA”; RNase L is expressed) or with an RNase L-targeting guide RNA (“RNase L-Targeting sgRNA”; RNase L protein abundance is knocked down) were used to complete these studies.
For global miRNA profiling experiments, RT was completed using 2 μg total RNA and a Mir-X miRNA First Strand Synthesis Kit (Takara) in a total volume of 20 μL. The RT reaction was then plated into the wells of a 384-well qPCR plate containing pre-diluted forward and reverse primers for the miRNA of interest. RT-qPCR was performed on a QuantStudio5™ Real-Time PCR Instrument (Applied Biosystems) using Power SYBR Green Master Mix (Applied Biosystems). Data were analyzed using the ΔΔCt method,^11 followed by calculation of log 2 fold changes and −log 10 p-values. The software Perseus was used to calculate the false discovery rate (FDR) of 1% with a group variance of S0(0.1).

MCF-10A cells = assay: Boyden chamber invasion assay, MCF-10A with forced pre-miR-21 expression; type: cell-based; details: WT pre-miR-21 plasmid
Protocol: as §1
MCF-10A cells were first transfected with either a plasmid expressing pre-miR-21 (Addgene; catalog #21114) or a plasmid encoding a pre-miR-21 mutant (custom purchased from GenScript USA, Inc, FIG. 8) using jetPRIME (Polyplus), per the manufacturer's protocol (3.2 μg of plasmid per 60 mm dish). After transfection, cells (50,000 per insert) were seeded into the hanging inserts in serum free growth medium, with or without compound (0.1% final DMSO concentration). The assay was then completed as described for the MDA-MB-231 cells.

pre-miR-21 = assay: In vitro C-Chem-CLIP; type: binding; details: 32P-labeled pre-miR-21; 8 at 5 μM; 7 at 1, 5, 20 or 100 μM
Protocol: Direct target occupancy was further verified using C-Chem-CLIP. In this assay, the RNA-binding module was conjugated to a diazirine cross-linking module and an alkyne handle for purification, affording Chem-CLIP probe 8 (FIG. 8A).^18 Radioactively labeled pre-miR-21 was incubated with a constant concentration of 8 and increasing amounts of 7. After cross-linking by irradiation with UV light, the amount of pre-miR-21 pulled down by 8 was measured by its radioactive signal. If the two compounds (7 and 8) share the same binding site, the amount of pre-miR-21 in the pulled down fraction is depleted.
In Vitro C-Chem-CLIP. Growth medium (RPMI 1640 medium supplemented with 300 mg/L Lglutamine & 25 mM HEPES; Corning, catalog #10-041-CV)] was inactivated by heating to 95° C. for 10 min followed by slowly cooling to room temperature. […]
Copper-catalyzed click chemistry^10 was used to click the probes in each sample to biotinazide (1265-5, Click Chemistry Tools). […] Radioactive signal from both the bound RNA on the magnetic beads and the unbound RNA in the wash solutions were measured using a Beckman […] Coulter LS6500 Liquid Scintillation Counter. The percentage pulldown by Chem-CLIP probe was calculated according to equation 2: […]

Question: Which reduction of invasiveness (MDA-MB-231 cells) does the source give for CNC(=O)[C@H](c1ccccc1)N(C)Cc1ccc(-c2cccc(-c3sccc3NC(=O)CCOCCOCCOCCC(=O)NCCN3CCN(c4ccc5nc(-c6c(N)c7c(F)cccc7[nH]c6=O)[nH]c5c4)CC3)c2)cc1 [RiboTAC 7, (S)—N-(2-(4-(2-(4-amino-5-fluoro-2-oxo-1,2-dihydroquinolin-3-yl)-1H-benzo[d]imidazol-6-yl)piperazin-1-yl)ethyl)-3-(2-(2-(3-((2-(4′-((methyl(2-(methylamino)-2-oxo-1-phenylethyl)amino)methyl)-[1,1′-biphenyl]-3-yl)thiophen-3-yl)amino)-3-oxopropoxy)ethoxy)ethoxy)propanamide] here?
Answer: Its reduction of invasiveness is about 30%.

Question: And the miRNA profiling selectivity (miR-21)?
Answer: The miRNA profiling selectivity was “selectively down-regulated miR-21 across the transcriptome”.

Question: What about the “invasive phenotype induced by forced expression of pre-miR-21” value (MCF-10A cells) of the same compound?
Answer: Its value is “rescued”.

Question: What about the “amount of pre-miR-21 cross-linked to Chem-CLIP probe 8 in competition” value (pre-miR-21) of the same compound?
Answer: Its value is “dose-dependently reduced the amount of pre-miR-21 cross-linked to 8”.
